Measured values taken from patent publication US7528138B2, “Pyrazolo[1,5-a]pyrimidines useful as inhibitors of protein kinases” (Vertex Pharmaceuticals Incorporated, priority 2004, dated 2009).

How the values were obtained:
JAK3 = molecular target: T1, JAK3 (Homo sapiens, UniProt P52333); assay: JAK3 Inhibition Assay, 33P incorporation; format: biochemical; conditions: enzyme inhibition data (Ki), Table 11
T1 sequence (P52333 1-1124): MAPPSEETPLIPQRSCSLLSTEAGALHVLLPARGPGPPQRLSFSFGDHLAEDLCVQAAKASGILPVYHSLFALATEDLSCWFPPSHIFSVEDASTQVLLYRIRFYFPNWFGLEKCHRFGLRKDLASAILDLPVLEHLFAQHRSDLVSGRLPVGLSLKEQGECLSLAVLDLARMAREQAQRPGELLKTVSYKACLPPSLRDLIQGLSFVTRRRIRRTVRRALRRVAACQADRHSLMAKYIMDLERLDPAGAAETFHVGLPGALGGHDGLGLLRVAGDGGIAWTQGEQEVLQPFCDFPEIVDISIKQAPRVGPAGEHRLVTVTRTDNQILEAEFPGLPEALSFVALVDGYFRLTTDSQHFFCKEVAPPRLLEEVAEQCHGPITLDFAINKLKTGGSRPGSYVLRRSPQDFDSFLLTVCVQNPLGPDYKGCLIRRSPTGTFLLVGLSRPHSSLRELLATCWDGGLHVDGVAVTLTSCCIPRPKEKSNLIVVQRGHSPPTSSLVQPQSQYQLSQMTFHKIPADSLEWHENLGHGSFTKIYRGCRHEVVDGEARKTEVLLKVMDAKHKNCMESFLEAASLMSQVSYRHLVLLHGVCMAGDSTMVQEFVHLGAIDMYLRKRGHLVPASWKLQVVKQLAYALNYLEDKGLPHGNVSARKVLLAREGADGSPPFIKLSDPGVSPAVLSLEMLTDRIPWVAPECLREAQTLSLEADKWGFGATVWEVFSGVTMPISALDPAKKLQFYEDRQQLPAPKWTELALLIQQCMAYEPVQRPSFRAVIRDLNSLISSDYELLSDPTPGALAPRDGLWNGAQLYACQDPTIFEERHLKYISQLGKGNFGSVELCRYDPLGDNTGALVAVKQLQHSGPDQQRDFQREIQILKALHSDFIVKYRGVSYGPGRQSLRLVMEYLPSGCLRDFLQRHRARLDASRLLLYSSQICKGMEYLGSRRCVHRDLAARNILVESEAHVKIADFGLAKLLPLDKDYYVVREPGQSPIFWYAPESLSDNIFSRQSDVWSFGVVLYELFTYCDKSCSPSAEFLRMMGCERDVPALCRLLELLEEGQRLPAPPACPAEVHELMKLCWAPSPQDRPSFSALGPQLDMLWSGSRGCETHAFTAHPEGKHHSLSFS
Summary of the method: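 Recombinant JAK3 at 1 nM in HEPES pH 7.4 buffer with 10 mM MgCl2, 1 mM DTT and 0.01% BSA. Substrates were 5 μM ATP (200 uCi/μmole) and 1 μM poly(Glu)4Tyr, reacted 20 min at 25 °C. Stopped with TCA, and 33P incorporation counted on glass fiber filters.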

Itk = molecular target: T2, Itk (Homo sapiens, UniProt Q08881); assay: ITK Inhibition Assay (Radiometric), radioactive-phosphate incorporation; format: biochemical; conditions: enzyme inhibition data (Ki), Table 11; radiometric or UV assay not stated
T2 sequence (Q08881 1-620): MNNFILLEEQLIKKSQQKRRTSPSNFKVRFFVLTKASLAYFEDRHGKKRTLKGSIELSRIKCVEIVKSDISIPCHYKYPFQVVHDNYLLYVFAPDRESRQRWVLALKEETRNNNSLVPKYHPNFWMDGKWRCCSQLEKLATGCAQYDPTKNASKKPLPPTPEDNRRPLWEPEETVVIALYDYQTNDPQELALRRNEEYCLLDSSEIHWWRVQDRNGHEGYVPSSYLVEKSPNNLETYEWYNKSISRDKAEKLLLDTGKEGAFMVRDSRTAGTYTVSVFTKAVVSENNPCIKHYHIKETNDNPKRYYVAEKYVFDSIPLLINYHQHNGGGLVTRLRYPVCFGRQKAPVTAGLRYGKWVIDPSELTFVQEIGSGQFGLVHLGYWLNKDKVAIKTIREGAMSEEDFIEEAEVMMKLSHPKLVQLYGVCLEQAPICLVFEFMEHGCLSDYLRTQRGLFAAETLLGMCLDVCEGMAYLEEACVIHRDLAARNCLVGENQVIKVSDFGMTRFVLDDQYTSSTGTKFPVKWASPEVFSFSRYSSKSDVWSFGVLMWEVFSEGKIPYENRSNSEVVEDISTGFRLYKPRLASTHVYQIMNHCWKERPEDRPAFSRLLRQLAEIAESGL
Summary of the method: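 Radiometric 33P incorporation into SAM68 peptide (D332-443) with filter capture and scintillation counting; 10 min pre-incubation then 10 min reaction at 25° C. IC50 format: 30 nM Itk, 15 μM ATP, 2 μM peptide, HEPES pH 7.5. Ki(app) format: 50 nM Itk, 7.5 μM ATP, 3 μM peptide, MOPS pH 7.0.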

## CN1CCN(C(=O)c2cccc(-c3cnc4c(-c5ccccn5)c(N)nn4c3)c2)CC1 [Compound V-55]
JAK3
  Ki: > 5 µM
Itk
  Ki: 0.5 to 5 µM
